Reference: patent US8575183B2, “Heterocyclic compounds and their uses” (priority 2010, dated 2013)
“And” between values parts separate entries of the source, which are not always exact repeats. Equal entries are not always repeated.

Biological target: T1, PI3k δ (Homo sapiens, UniProt O00329)
T1 construct: Full length p110 subunits of PI3k α, β and δ; polyHis (N); made in house; host or cells: Sf9 insect cells (baculovirus)
Assay: biochemical
Type: biochemical
Settings: read-out: PI3k δ Ki
Method: Full length p110 subunits of PI3k α, β and δ, N-terminally labeled with polyHis tag, were coexpressed with p85 with Baculo virus expression vectors in sf9 insect cells. P110/p85 heterodimers were purified by sequential Ni-NTA, Q-HP, Superdex-100 chromatography. Purified α, β and δ isozymes were stored at −20° C. in 20 mM Tris, pH 8, 0.2M NaCl, 50% glycerol, 5 mM DTT, 2 mM Na cholate. […] The γ isozyme was purified by sequential Ni-NTA, Superdex-200, Q-HP chromatography. The γ isozyme was stored frozen at −80° C. in NaH2PO4, pH 8, 0.2M NaCl, 1% ethylene glycol, 2 mM β-mercaptoethanol.
Phospatidyl inositol phosphoacceptor, Ptdlns(4,5)P2 P4508, was from Echelon Biosciences. […] Test compounds were dissolved in dimethyl sulfoxide and diluted with three-fold serial dilutions. The compound in DMSO (1 μL) was added per test well, and the inhibition relative to reactions containing no compound, with and without enzyme was determined. After assay incubation at rt, the reaction was stopped and residual ATP determined by addition of an equal volume of a commercial ATP bioluminescence kit (Perkin Elmer EasyLite) according to the manufacturer's instructions, and detected using a AnalystGT luminometer.

T1 sequence (O00329 whole entry): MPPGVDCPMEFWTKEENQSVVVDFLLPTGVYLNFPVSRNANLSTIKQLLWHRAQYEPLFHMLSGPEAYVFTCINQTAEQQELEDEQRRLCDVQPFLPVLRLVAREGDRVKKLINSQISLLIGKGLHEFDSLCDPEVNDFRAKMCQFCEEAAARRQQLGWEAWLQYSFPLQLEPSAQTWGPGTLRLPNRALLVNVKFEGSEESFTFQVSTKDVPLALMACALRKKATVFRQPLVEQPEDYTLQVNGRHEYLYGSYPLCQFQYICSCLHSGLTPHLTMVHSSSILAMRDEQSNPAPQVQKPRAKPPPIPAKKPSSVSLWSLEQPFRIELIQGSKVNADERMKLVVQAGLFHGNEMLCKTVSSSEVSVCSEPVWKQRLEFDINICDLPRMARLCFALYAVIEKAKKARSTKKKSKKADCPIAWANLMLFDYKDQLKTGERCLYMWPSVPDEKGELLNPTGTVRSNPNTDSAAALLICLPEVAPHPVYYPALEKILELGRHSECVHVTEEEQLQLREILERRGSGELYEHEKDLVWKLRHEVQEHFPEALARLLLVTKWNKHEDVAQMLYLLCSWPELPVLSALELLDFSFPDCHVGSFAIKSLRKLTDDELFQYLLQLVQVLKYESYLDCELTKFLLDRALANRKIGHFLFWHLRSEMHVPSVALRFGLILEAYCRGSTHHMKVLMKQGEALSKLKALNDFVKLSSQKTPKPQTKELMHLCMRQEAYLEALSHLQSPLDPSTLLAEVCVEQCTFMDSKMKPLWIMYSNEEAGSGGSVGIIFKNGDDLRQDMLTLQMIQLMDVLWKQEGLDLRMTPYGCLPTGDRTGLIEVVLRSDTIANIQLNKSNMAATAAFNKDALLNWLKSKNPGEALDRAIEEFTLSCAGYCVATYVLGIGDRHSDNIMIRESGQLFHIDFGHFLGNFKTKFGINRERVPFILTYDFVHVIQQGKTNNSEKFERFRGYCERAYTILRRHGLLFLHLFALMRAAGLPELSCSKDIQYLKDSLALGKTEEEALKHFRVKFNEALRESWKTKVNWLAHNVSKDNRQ
T1 sequence (P27986 whole entry partner): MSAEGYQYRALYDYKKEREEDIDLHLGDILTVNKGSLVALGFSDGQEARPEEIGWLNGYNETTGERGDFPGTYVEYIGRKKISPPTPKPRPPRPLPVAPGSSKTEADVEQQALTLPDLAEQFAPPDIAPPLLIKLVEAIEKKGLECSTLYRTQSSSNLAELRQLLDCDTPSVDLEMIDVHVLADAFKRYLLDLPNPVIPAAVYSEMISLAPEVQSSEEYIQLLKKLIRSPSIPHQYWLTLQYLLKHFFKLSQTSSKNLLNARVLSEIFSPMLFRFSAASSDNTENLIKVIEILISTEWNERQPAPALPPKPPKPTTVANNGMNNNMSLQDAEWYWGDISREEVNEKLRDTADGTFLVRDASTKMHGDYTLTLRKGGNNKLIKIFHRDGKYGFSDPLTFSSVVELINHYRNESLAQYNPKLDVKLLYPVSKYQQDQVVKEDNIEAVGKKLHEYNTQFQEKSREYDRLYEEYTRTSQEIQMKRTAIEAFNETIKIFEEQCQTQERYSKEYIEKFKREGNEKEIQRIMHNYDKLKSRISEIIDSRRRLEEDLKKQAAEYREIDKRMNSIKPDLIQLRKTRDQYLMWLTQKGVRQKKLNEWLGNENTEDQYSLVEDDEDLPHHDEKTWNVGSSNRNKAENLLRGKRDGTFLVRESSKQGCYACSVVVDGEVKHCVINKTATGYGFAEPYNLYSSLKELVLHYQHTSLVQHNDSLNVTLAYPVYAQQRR

Row | Structure (SMILES) | Ki
1 | C[C@H](Nc1ncnc(N)c1C#N)c1nc2c(F)cc(F)cc2n1-c1cc(F)cc(F)c1 [4-amino-6-(((1S)-1-(1-(3,5-difluorophenyl)-4,6-difluoro-1H-benzimidazol-2-yl)ethyl)amino)-5-pyrimidinecarbonitrile] | 0.0026 µM
2 | C[C@H](Nc1ncnc(N)c1C#N)c1nc2c(F)cccc2n1-c1cc(F)cc(F)c1 [4-amino-6-(((1S)-1-(1-(3,5-difluorophenyl)-4-fluoro-1H-benzimidazol-2-yl)ethyl)amino)-5-pyrimidinecarbonitrile] | 0.0064 µM and 0.0021 µM
3 | C[C@H](Nc1ncnc(N)c1C#N)c1nc2cccc(F)c2n1-c1cc(F)cc(F)c1 [4-amino-6-(((1S)-1-(1-(3,5-difluorophenyl)-7-fluoro-1H-benzimidazol-2-yl)ethyl)amino)-5-pyrimidinecarbonitrile] | 0.0037 µM
4 | C[C@H](Nc1ncnc(N)c1C#N)c1nc2ccc(F)cc2n1-c1cccc(C#N)c1 [4-amino-6-(((1S)-1-(1-(3-cyanophenyl)-6-fluoro-1H-benzimidazol-2-yl)ethyl)amino)-5-pyrimidinecarbonitrile] | 0.0188 µM
5 | C[C@H](Nc1ncnc(N)c1C#N)c1nc2c(S(C)(=O)=O)cccc2n1Cc1ccc(F)cc1 [4-amino-6-(((1S)-1-(1-(4-fluorobenzyl)-4-(methylsulfonyl)-1H-benzimidazol-2-yl)ethyl)amino)-5-pyrimidinecarbonitrile] | 2.41 µM
6 | C[C@H](Nc1ncnc(N)c1C#N)c1nc2cccc(S(C)(=O)=O)c2n1Cc1ccc(F)cc1 [4-amino-6-(((1S)-1-(1-(4-fluorobenzyl)-7-(methylsulfonyl)-1H-benzimidazol-2-yl)ethyl)amino)-5-pyrimidinecarbonitrile] | 0.0268 µM
7 | CC[C@H](Nc1ncnc(N)c1C#N)c1nc2cccc(S(C)(=O)=O)c2n1Cc1ccc(F)cc1 [4-amino-6-(((1S)-1-(1-(4-fluorobenzyl)-7-(methylsulfonyl)-1H-benzimidazol-2-yl)propyl)amino)-5-pyrimidinecarbonitrile] | 0.0274 µM
8 | CC[C@H](Nc1ncnc(N)c1C#N)c1nc2cccc(C(F)(F)F)c2n1Cc1ccc(F)cc1 [4-amino-6-(((1S)-1-(1-(4-fluorobenzyl)-7-(trifluoromethyl)-1H-benzimidazol-2-yl)propyl)amino)-5-pyrimidinecarbonitrile] | 0.464 µM
9 | C[C@H](Nc1ncnc(N)c1C#N)c1nc2cc(F)ccc2n1CC1CC1 [4-amino-6-(((1S)-1-(1-(cyclopropylmethyl)-5-fluoro-1H-benzimidazol-2-yl)ethyl)amino)-5-pyrimidinecarbonitrile] | 0.006 µM and 0.0258 µM
10 | C[C@H](Nc1ncnc(N)c1C#N)c1nc2ccc(F)cc2n1CC1CC1 [4-amino-6-(((1S)-1-(1-(cyclopropylmethyl)-6-fluoro-1H-benzimidazol-2-yl)ethyl)amino)-5-pyrimidinecarbonitrile] | 0.0031 µM
11 | C[C@H](Nc1ncnc(N)c1C#N)c1nc2cccc(S(C)(=O)=O)c2n1CC1CC1 [4-amino-6-(((1S)-1-(1-(cyclopropylmethyl)-7-(methylsulfonyl)-1H-benzimidazol-2-yl)ethyl)amino)-5-pyrimidinecarbonitrile] | 0.0022 µM
12 | CC[C@H](Nc1ncnc(N)c1C#N)c1nc2cccc(S(C)(=O)=O)c2n1CC1CC1 [4-amino-6-(((1S)-1-(1-(cyclopropylmethyl)-7-(methylsulfonyl)-1H-benzimidazol-2-yl)propyl)amino)-5-pyrimidinecarbonitrile] | 0.00219 µM
13 | CC[C@H](Nc1ncnc(N)c1C#N)c1nc2cccc(C(F)(F)F)c2n1CC1CC1 [4-amino-6-(((1S)-1-(1-(cyclopropylmethyl)-7-(trifluoromethyl)-1H-benzimidazol-2-yl)propyl)amino)-5-pyrimidinecarbonitrile] | 0.0531 µM
14 | C[C@H](Nc1ncnc(N)c1C#N)c1nc2c(S(C)(=O)=O)cccc2n1C1CCCC1 [4-amino-6-(((1S)-1-(1-cyclopentyl-4-(methylsulfonyl)-1H-benzimidazol-2-yl)ethyl)amino)-5-pyrimidinecarbonitrile] | 1.44 µM
15 | C[C@H](Nc1ncnc(N)c1C#N)c1nc2cccc(S(C)(=O)=O)c2n1C1CC1 [4-amino-6-(((1S)-1-(1-cyclopropyl-7-(methylsulfonyl)-1H-benzimidazol-2-yl)ethyl)amino)-5-pyrimidinecarbonitrile] | 0.00283 µM
16 | C[C@H](Nc1ncnc(N)c1C#N)c1nc2cccc(F)c2n1C1CC1 [4-amino-6-(((1S)-1-(1-cyclopropyl-7-fluoro-1H-benzimidazol-2-yl)ethyl)amino)-5-pyrimidinecarbonitrile] | 0.0122 µM
17 | C[C@H](Nc1ncnc(N)c1C#N)c1nc2cnccn2c1-c1ccccn1 [4-amino-6-(((1S)-1-(3-(2-pyridinyl)imidazo[1,2-a]pyrazin-2-yl)ethyl)amino)-5-pyrimidinecarbonitrile] | 2.16 µM

Row | Structure (SMILES) | Ki
18 | C[C@H](Nc1ncnc(N)c1C#N)c1nc2ncccn2c1-c1ccccn1 [4-amino-6-(((1S)-1-(3-(2-pyridinyl)imidazo[1,2-a]pyrimidin-2-yl)ethyl)amino)-5-pyrimidinecarbonitrile] | 1.58 µM
19 | C[C@H](Nc1ncnc(N)c1C#N)c1nc2cccnn2c1-c1ccccn1 [4-amino-6-(((1S)-1-(3-(2-pyridinyl)imidazo[1,2-b]pyridazin-2-yl)ethyl)amino)-5-pyrimidinecarbonitrile] | 2.01 µM
20 | C[C@H](Nc1ncnc(N)c1C#N)c1nc2cccnc2n1-c1cc(F)cc(F)c1 [4-amino-6-(((1S)-1-(3-(3,5-difluorophenyl)-3H-imidazo[4,5-b]pyridin-2-yl)ethyl)amino)-5-pyrimidinecarbonitrile] | 0.138 µM
21 | C[C@H](Nc1ncnc(N)c1C#N)c1nc2ccc(F)cn2c1-c1cc(F)cc(Cl)c1 [4-amino-6-(((1S)-1-(3-(3-chloro-5-fluorophenyl)-6-fluoroimidazo[1,2-a]pyridin-2-yl)ethyl)amino)-5-pyrimidinecarbonitrile] | 0.0088 µM
22 | C[C@H](Nc1ncnc(N)c1C#N)c1nc2ccc(F)cn2c1-c1ccc(Cl)cc1 [4-amino-6-(((1S)-1-(3-(4-chlorophenyl)-6-fluoroimidazo[1,2-a]pyridin-2-yl)ethyl)amino)-5-pyrimidinecarbonitrile] | 0.0251 µM
23 | C[C@H](Nc1ncnc(N)c1C#N)c1nc2ccccn2c1-c1ccc(Cl)cc1 [4-amino-6-(((1S)-1-(3-(4-chlorophenyl)imidazo[1,2-a]pyridin-2-yl)ethyl)amino)-5-pyrimidinecarbonitrile] | 0.074 µM
24 | C[C@H](Nc1ncnc(N)c1C#N)c1nc2c(F)cc(F)cc2n1-c1cccnc1 [4-amino-6-(((1S)-1-(4,6-difluoro-1-(3-pyridinyl)-1H-benzimidazol-2-yl)ethyl)amino)-5-pyrimidinecarbonitrile] | 0.00674 µM
25 | C[C@H](Nc1ncnc(N)c1C#N)c1nc2c(F)cccc2n1-c1cncc(F)c1 [4-amino-6-(((1S)-1-(4-fluoro-1-(5-fluoro-3-pyridinyl)-1H-benzimidazol-2-yl)ethyl)amino)-5-pyrimidinecarbonitrile] | 0.047 µM
26 | C[C@H](Nc1ncnc(N)c1C#N)c1nc2cc(F)c(F)cc2n1-c1cncc(F)c1 [4-amino-6-(((1S)-1-(5,6-difluoro-1-(5-fluoro-3-pyridinyl)-1H-benzimidazol-2-yl)ethyl)amino)-5-pyrimidinecarbonitrile] | 0.0575 µM
27 | C[C@H](Nc1ncnc(N)c1C#N)c1nc2cccc(C(=O)N3CCN(C)CC3)n2c1-c1ccccc1 [4-amino-6-(((1S)-1-(5-((4-methyl-1-piperazinyl)carbonyl)-3-phenylimidazo[1,2-a]pyridin-2-yl)ethyl)amino)-5-pyrimidinecarbonitrile] | 0.0118 µM
28 | CSc1cccc(-n2c([C@H](C)Nc3ncnc(N)c3C#N)nc3cc(F)ccc32)c1 [4-amino-6-(((1S)-1-(5-fluoro-1-(3-(methylsulfanyl)phenyl)-1H-benzimidazol-2-yl)ethyl)amino)-5-pyrimidinecarbonitrile] | 0.0441 µM
29 | C[C@H](Nc1ncnc(N)c1C#N)c1nc2cc(F)ccc2n1-c1cncc(F)c1 [4-amino-6-(((1S)-1-(5-fluoro-1-(5-fluoro-3-pyridinyl)-1H-benzimidazol-2-yl)ethyl)amino)-5-pyrimidinecarbonitrile] | 0.0964 µM
30 | C[C@H](Nc1ncnc(N)c1C#N)c1nc2cc(F)ccc2n1-c1ccccc1 [4-amino-6-(((1S)-1-(5-fluoro-1-phenyl-1H-benzimidazol-2-yl)ethyl)amino)-5-pyrimidinecarbonitrile] | 0.0017 µM
31 | C[C@H](Nc1ncnc(N)c1C#N)c1nc2ccc(Cl)cc2n1-c1cc(F)cc(F)c1 [4-amino-6-(((1S)-1-(6-chloro-1-(3,5-difluorophenyl)-1H-benzimidazol-2-yl)ethyl)amino)-5-pyrimidinecarbonitrile] | 0.0027 µM
32 | C[C@H](Nc1ncnc(N)c1C#N)c1nc2ccc(F)cc2n1-c1cccc(-c2ccccn2)c1 [4-amino-6-(((1S)-1-(6-fluoro-1-(3-(2-pyridinyl)phenyl)-1H-benzimidazol-2-yl)ethyl)amino)-5-pyrimidinecarbonitrile] | 0.0089 µM and 0.0038 µM
33 | C[C@H](Nc1ncnc(N)c1C#N)c1nc2ccc(F)cc2n1-c1cccc(F)n1 [4-amino-6-(((1S)-1-(6-fluoro-1-(6-fluoro-2-pyridinyl)-1H-benzimidazol-2-yl)ethyl)amino)-5-pyrimidinecarbonitrile] | 0.00889 µM
34 | C[C@H](Nc1ncnc(N)c1C#N)c1nc2cccc(S(C)(=O)=O)c2[nH]1 [4-amino-6-(((1S)-1-(7-(methylsulfonyl)-1H-benzimidazol-2-yl)ethyl)amino)-5-pyrimidinecarbonitrile] | 0.0455 µM
